From patent US4005084A, “Thienylmethyl phenoxy morpholine compounds” (Yoshitomi Pharmaceutical Industries, Ltd., priority 1975, dated 1977)
Like-named read-outs stand apart in the source and are kept apart here.

How the values were obtained:
[1] = tested on: Shay ulcer; assay: Inhibitory activity on Shay ulcer in rats; assay type: in vivo, Wistar rats (female); details: Rattus norvegicus, sc, read-out: Inhibitory activity on Shay ulcer, ED50
Experimental: Female Wistar rats (140-180 g) were fasted for 44 hours but allowed free access to ater after which the pylorus was ligated as described by Shay et al. in the Gastroenterology, vol. […] Immediately after this ligation, test compound was given subcutaneously. Ten hours later, the animals were sacrificed by an overdose of ether, the stomach was removed and examined for lesions. The logarithm of the sum of each damaged area per rat was referred to as the ulcer index.
The Per Cent Inhibition was calculated as follows: [formula]
The ED50 was read from the semilogarithmic graph on which the Per Cent Inhibition was plotted vs. mg/kg dose.

[2] = tested on: gastric motility; assay: Inhibitory activity on gastric motility under stress in rats; assay type: in vivo, Wistar rats (male); details: Rattus norvegicus, read-out: Inhibitory activity on gastric motility, ED50
Experimental: The procedure described by K. Watanabe in the Chemical & Pharmaceutical Bulletin, vol.
Male Wistar rats weighing about 250 g were used. After fasting for 18 hours, rats were fixed on their backs by the limbs with thread on boads and immersed into water to the depth of the xiphoid cartilage. Temperature of water was kept at 22° C.
Pressure change in small rubber balloon fixed in the grandular stomach was recorded with pressure transducer (Nihon Koden Kogyo Co., Ltd., MP-4T). The balloon was inserted from the forestomach under light ether anesthesia. Initial pressure was kept at the height of 10 mmHg.
When the effect of anesthesia and of the operation diminished, test compound was administered into the stomach through the polyethylene tube which was previously inserted into the stomach with the balloon.

[3] = tested on: gastric secretion; assay: Inhibitory activity on gastric secretion in rats; assay type: in vivo, Wistar rats (male); details: Rattus norvegicus, sc, read-out: Inhibitory activity on gastric secretion, ED50
Experimental: After fasting for 48 hours, the stomach of male Wistar rats weighing about 200 g were ligated at the pylorus under light ether anesthesia as described by Shay et al. in the Gastroenterology, vol. 5, pp. 43-61 (1945). Immediately after this ligation, test compound was given subcutaneously. Four hours later, the gastric juice in the stomach was collected and centrifuged for each rat and expressed as ml per 100 g of body weight.
The ED50 was calculated in the same manner as Test (I) on Shay ulcer.

[4] = target: T1, acetylcholine (contracting action of the guinea pig intestine) (Cavia porcellus); assay: Acetylcholine antagonistic activity on contraction of guinea pig intestine; details: negative log10 of molar concentration reducing effect of a double dose of acetylcholine to that of a single dose, read-out: Acetylcholine antagonistic activity, pA2 (converted)
T1 construct: contracting action of the guinea pig intestine; from tissue; host or cells: guinea pig intestine
T1 sequence (H0W1Z3 1-590): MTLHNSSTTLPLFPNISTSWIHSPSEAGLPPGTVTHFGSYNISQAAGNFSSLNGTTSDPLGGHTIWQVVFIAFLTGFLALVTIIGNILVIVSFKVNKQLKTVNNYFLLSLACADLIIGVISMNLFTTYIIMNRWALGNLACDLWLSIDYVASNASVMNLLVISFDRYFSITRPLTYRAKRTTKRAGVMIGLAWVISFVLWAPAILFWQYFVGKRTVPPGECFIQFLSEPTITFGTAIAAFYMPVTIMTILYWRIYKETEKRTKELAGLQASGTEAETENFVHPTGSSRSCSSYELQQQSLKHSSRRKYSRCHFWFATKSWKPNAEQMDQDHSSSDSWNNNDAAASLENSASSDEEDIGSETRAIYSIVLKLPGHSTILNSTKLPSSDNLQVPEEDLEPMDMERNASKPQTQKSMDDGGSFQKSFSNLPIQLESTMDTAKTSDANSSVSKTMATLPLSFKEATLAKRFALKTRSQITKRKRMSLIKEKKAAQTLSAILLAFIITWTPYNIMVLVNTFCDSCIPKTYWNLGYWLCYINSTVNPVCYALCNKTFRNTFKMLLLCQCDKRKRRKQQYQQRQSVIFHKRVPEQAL
Experimental: Acetylcholine antagonistic activity was tested according to the method described by J. M. Van Rossum et al. in the Archives Internationales de Pharmacodynamie et de Therapie, vol. 143, pp. 240-246 and pp. 299-330 (1963). The pA2 is the negative of the logarithm, to the base 10, of the molar concentration of the test compound which reduced the effect of a double dose of acetylcholine on contracting action of the guinea pig intestine compared with that of a single dose.

Kb [4] [µM]	SMILES	ED50 ([1]; 10 h) [mg/kg]	ED50 [2] [mg/kg]	ED50 ([3]; 4 h) [mg/kg]	ED50 ([1]; subcutaneous, immediately after pylorus ligation, examined 10 hours later) [mg/kg]	ED50 ([2]; administered into the stomach, stress by water immersion at 22° C) [mg/kg]	ED50 ([3]; subcutaneous, immediately after pylorus ligation, gastric juice collected 4 hours later) [mg/kg]
–	CN1[C@@H]2CC[C@H]1C[C@@H](OC(=O)C(CO)c1ccccc1)C2 (stereo partly shown) [Atropine, reference compound]	0.5	≤ 3	0.12	–	–	–
6.31	O=C(O)/C=C\C(=O)O.c1csc(Cc2ccccc2OCC2CNCCO2)c1 (stereo not shown) [Compound A, 2-[2-(2-thenyl)phenoxymethyl]morpholine maleate]	–	–	–	5.5	2.1	4.5
